This data set in a line: Differential scanning calorimetry (DSC) of niacinamide and its 2% blends with silicones. It counts as physicochemical. How it is done:
To further understand the difference in interaction between ionically modified silicone and control/Silsoft silicone gel, differential scanning calorimetry (DSC) studies were carried out on pure active-niacinamide, and its blends with silsoft silicone and ionically modified silicone. 2% Niacinamide blends were prepared by thoroughly mixing Niacinamide with above silicones using spatula followed by high-speed mixing in Flack-Tek for 5 minutes. The free Niacinamide and Niacinamide loaded Silsoft silicone gel and ionically modified silicone were subjected to a heating and cooling cycle under nitrogen atmosphere. The DSC thermograms are show in FIG. 2.
A general note: Differential scanning calorimetry records heat flow against a reference as temperature is scanned.

As to `NC(=O)c1cccnc1` [Niacinamide, niacinamide], the “ΔH (heat change associated with the melting of Niacinamide)” value (nitrogen atmosphere) came to 218.7 J/g. In addition, the “% Crystallinity (crystalline Niacinamide)” value (relative to pure niacinamide) is listed as 100%.
